Here are results for 21 compounds from US20230212144A1, “5-MEMBERED HETEROARYL DERIVATIVE CONTAINING AT LEAST ONE N, AND PHARMACEUTICAL COMPOSITION FOR PREVENTING OR TREATING MENTAL DISORDERS, CONTAINING SAME AS ACTIVE INGREDIENT” (DAEGU-GYEONGBUK MEDICAL INNOVATION FOUNDATION, priority 2020, published 2023).

Assay [1] concerns the target norepinephrine transporter (NET) (Homo sapiens, UniProt P23975). As to the kind of experiment: Norepinephrine reuptake inhibition, [3H]-NE, cells transfected with NE transporter cDNA. Particulars: for Triple reuptake inhibition (Ratio %) NET: compound 1 μM, relative to control without compound (100%), lower value = stronger inhibition.
Procedure: (§1) After removing the medium, each compound of Examples or Comparative Examples diluted to 1 μM in uptake buffer was added to a concentration of 200 μL/well and cultured at 37° C. for 15 minutes. 100 μL of uptake buffer containing 20-30 nM [3H]-DA was added and cultured at 37° C. for 5 minutes. The reaction solution was quickly removed and washed three times with 1 mL ice-cold uptake buffer. After dissolving the resultant in 1% SDS (0.5 mL), the degree of binding of radioisotope-labeled dopamine to the transporter was measured.
(§2) For norepinephrine(NE) and serotonin(5-HT), the degree of binding of radioisotope-labeled norepinephrine or serotonin to the transporter was measured in the same manner as above, except that cells transfected with NE or 5-HT transporter cDNA were used and [3H]-NE or [3H]-5-HT was used as a substrate.
(§3) In addition, when evaluating the reuptake inhibitory effect on dopamine, norepinephrine, and serotonin, the same method was performed without treating each compound of Examples or Comparative Examples as a control, the degree of binding of radioisotope-labeled dopamine, norepinephrine, and serotonin to the transporter was measured, and by using this as a reference (100%), the triple reuptake inhibitory effect was evaluated as a relative ratio (Ratio %). That is, in the control group, the binding of dopamine, norepinephrine, and serotonin to transporters is not inhibited, but when each compound of Examples is treated and thus the binding is inhibited, the Ratio % value decreases.
Assay [2] has as its target serotonin transporter (SERT) (Homo sapiens, UniProt P31645). As to the kind of experiment: Serotonin reuptake inhibition, [3H]-5-HT, cells transfected with 5-HT transporter cDNA. Particulars: for Triple reuptake inhibition (Ratio %) SERT: compound 1 μM, relative to control without compound (100%), lower value = stronger inhibition.
Procedure: as §1, §2, §3
The target in assay [3] is dopamine transporter (DAT) (Homo sapiens, UniProt Q01959). As to the kind of experiment: Dopamine reuptake inhibition, [3H]-DA, HEK-293 cells transfected with dopamine transporter cDNA. Particulars: for Triple reuptake inhibition (Ratio %) DAT: compound 1 μM, relative to control without compound (100%), lower value = stronger inhibition.
Chain of dopamine transporter (DAT) (Q01959 whole entry, species assumed): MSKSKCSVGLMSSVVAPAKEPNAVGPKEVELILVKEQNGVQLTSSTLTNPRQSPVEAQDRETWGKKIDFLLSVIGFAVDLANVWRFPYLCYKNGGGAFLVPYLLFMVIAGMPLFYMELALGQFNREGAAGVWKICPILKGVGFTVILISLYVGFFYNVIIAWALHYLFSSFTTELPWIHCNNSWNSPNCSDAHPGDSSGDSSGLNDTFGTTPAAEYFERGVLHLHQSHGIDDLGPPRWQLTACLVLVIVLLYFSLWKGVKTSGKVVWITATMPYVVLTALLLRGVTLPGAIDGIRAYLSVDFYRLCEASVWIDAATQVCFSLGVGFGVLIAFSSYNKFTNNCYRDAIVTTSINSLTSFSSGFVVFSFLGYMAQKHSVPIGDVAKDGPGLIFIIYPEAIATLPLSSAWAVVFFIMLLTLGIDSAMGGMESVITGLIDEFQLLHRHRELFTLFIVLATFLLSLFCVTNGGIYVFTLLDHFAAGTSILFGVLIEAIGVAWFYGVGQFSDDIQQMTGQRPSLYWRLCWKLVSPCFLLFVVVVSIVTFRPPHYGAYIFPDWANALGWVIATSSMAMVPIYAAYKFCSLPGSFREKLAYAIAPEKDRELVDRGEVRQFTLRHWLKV
Procedure: as §1, §3

Chain of serotonin transporter (SERT) (P31645 whole entry, species assumed): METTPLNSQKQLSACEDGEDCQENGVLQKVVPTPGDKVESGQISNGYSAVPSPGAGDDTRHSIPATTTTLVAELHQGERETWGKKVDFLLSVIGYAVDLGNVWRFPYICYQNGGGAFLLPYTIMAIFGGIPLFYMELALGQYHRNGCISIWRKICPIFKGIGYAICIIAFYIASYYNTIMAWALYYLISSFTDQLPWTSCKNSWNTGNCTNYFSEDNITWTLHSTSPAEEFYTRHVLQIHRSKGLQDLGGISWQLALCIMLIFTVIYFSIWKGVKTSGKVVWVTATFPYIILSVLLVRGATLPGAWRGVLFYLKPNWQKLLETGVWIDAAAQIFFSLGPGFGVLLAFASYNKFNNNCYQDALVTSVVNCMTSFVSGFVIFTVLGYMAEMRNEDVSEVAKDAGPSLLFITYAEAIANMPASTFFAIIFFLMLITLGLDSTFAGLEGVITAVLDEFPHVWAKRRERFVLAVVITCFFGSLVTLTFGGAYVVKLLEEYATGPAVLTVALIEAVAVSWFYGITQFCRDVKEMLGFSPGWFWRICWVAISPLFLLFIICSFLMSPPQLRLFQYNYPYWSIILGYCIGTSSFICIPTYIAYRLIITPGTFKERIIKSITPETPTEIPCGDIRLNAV
Chain of norepinephrine transporter (NET) (P23975 whole entry, species assumed): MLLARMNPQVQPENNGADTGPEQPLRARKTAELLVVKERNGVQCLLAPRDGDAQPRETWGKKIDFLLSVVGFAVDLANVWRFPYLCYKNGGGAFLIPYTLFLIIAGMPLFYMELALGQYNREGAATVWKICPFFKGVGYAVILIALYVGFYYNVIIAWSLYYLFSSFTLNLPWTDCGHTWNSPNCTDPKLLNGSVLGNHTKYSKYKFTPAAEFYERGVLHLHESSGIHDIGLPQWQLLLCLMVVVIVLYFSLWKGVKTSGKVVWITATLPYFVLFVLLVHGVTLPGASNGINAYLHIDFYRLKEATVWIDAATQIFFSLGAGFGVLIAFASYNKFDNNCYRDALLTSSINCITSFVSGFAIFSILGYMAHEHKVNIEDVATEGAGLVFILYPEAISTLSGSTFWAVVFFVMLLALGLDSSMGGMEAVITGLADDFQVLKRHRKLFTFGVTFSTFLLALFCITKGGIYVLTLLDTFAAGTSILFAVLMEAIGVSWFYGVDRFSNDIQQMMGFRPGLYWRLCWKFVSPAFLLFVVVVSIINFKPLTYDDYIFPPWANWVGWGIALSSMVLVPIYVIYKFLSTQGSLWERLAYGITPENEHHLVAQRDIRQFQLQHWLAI

The term IC50 denotes the concentration that inhibits the measured activity by half. Higher therefore signals a need for much substance. For `Cc1ccc2c(-c3nnc(CN4CCC(Cc5ccccc5)CC4)[nH]3)c[nH]c2c1` [Example 38, 3-(5-((4-benzylpiperidin-1-yl)methyl)-4H-1,2,4-triazol-3-yl)-6-methyl-1H-indole], in assay [1], the half-inhibitory concentration (IC50) worked out at 361 nM and the “Triple reuptake inhibition (Ratio %) NET” value is listed as 64.82%. In assay [2], the IC50 was 518 nM and the “Triple reuptake inhibition (Ratio %) SERT” value amounted to 51.55%. Also, in assay [3], half-maximal inhibition (IC50) was put at 670 nM and the “Triple reuptake inhibition (Ratio %) DAT” value amounted to 31.70%.
`Cc1ccc2[nH]cc(-c3nnc(CN4CCC(Cc5ccccc5)CC4)[nH]3)c2c1` [Example 39, 3-(5-((4-benzylpiperidin-1-yl)methyl)-4H-1,2,4-triazol-3-yl)-5-methyl-1H-indole]: the “Triple reuptake inhibition (Ratio %) NET” value in assay [1] is reported as 99.14%. For the same compound, the “Triple reuptake inhibition (Ratio %) SERT” value in assay [2] was 58.07%. In addition, the “Triple reuptake inhibition (Ratio %) DAT” value in assay [3] came out at 79.20%.
With `Clc1cccc2c(-c3nnc(CN4CCC(Cc5ccccc5)CC4)[nH]3)c[nH]c12` [Example 40, 3-(5-((4-benzylpiperidin-1-yl)methyl)-4H-1,2,4-triazol-3-yl)-7-chloro-1H-indole], in assay [1], the IC50 is 924 nM and the “Triple reuptake inhibition (Ratio %) NET” value amounted to 92.42%. For the same compound, in assay [2], the IC50 amounted to 648 nM and the “Triple reuptake inhibition (Ratio %) SERT” value turned out to be 53.66%. In assay [3], the IC50 was determined as 670 nM and the “Triple reuptake inhibition (Ratio %) DAT” value came out at 50.15%.
Take `Clc1ccc2[nH]cc(-c3nnc(CN4CCC(Cc5ccccc5)CC4)[nH]3)c2c1` [Example 41, 3-(5-((4-benzylpiperidin-1-yl)methyl)-4H-1,2,4-triazol-3-yl)-5-chloro-1H-indole]: in assay [1], the “Triple reuptake inhibition (Ratio %) NET” value is reported as 86.61%. Also, in assay [2], the “Triple reuptake inhibition (Ratio %) SERT” value stood at 57.01%. Further, in assay [3], the “Triple reuptake inhibition (Ratio %) DAT” value was 62.96%.
Take `COC(=O)c1cccc2c(-c3nnc(CN4CCC(Cc5ccccc5)CC4)[nH]3)c[nH]c12` [Example 42, methyl 3-(5-((4-benzylpiperidin-1-yl)methyl)-4H-1,2,4-triazol-3-yl)-1H-indol-7-carboxylate]: in assay [1], the IC50 amounted to 969 nM and the “Triple reuptake inhibition (Ratio %) NET” value amounted to 96.81%. Besides, in assay [2], the IC50 came to 417 nM and the “Triple reuptake inhibition (Ratio %) SERT” value is recorded as 42.17%. Besides, in assay [3], 453 nM corresponded to half-maximal inhibition (IC50) and the “Triple reuptake inhibition (Ratio %) DAT” value came to 42.13%.
Take `Nc1ccc2[nH]cc(-c3nnc(CN4CCC(Cc5ccccc5)CC4)[nH]3)c2c1` [Example 43, 3-(5-((4-benzylpiperidin-1-yl)methyl)-4H-1,2,4-triazol-3-yl)-1H-indol-5-amine]: in assay [1], half-maximal inhibition (IC50) required 4040 nM and the “Triple reuptake inhibition (Ratio %) NET” value is given as 88.30%. In addition, in assay [2], the IC50 came out at 506 nM and the “Triple reuptake inhibition (Ratio %) SERT” value stood at 35.57%. In addition, in assay [3], the IC50 was 435 nM and the “Triple reuptake inhibition (Ratio %) DAT” value was found to be 54.93%.
In the case of `COc1ccc2[nH]cc(-c3nnc(CN4CCC(Cc5ccc(Cl)c(Cl)c5)CC4)[nH]3)c2c1` [Example 44, 3-(5-((4-(3,4-dichlorobenzyl)piperidin-1-yl)methyl)-4H-1,2,4-triazol-3-yl)-5-methoxy-1H-indole], in assay [1], the “Triple reuptake inhibition (Ratio %) NET” value is on record as 92.59%. Also, in assay [2], the “Triple reuptake inhibition (Ratio %) SERT” value is 28.87%. Moreover, in assay [3], the “Triple reuptake inhibition (Ratio %) DAT” value turned out to be 80.58%.
For the compound `COc1cccc2c(-c3nnc(CN4CCC(Cc5ccc(Cl)c(Cl)c5)CC4)[nH]3)c[nH]c12` [Example 45, 3-(5-((4-(3,4-dichlorobenzyl)piperidin-1-yl)methyl)-4H-1,2,4-triazol-3-yl)-7-methoxy-1H-indole], the “Triple reuptake inhibition (Ratio %) NET” value in assay [1] is on record as 112.38%. In assay [2], the “Triple reuptake inhibition (Ratio %) SERT” value is given as 21.98%. Besides, the “Triple reuptake inhibition (Ratio %) DAT” value in assay [3] came to 72.49%.
As to `N#Cc1ccc(-c2nnc(CN3CCC(Cc4ccccc4)CC3)[nH]2)cc1` [Example 46, 4-(5-((4-benzylpiperidin-1-yl)methyl)-4H-1,2,4-triazol-3-yl)benzonitrile], in assay [1], the IC50 was determined as 816 nM and the “Triple reuptake inhibition (Ratio %) NET” value stood at 53.00%. For the same compound, in assay [2], it took 2980 nM to reach half-maximal inhibition (IC50) and the “Triple reuptake inhibition (Ratio %) SERT” value was 60.13%. Further, in assay [3], the IC50 is 203 nM and the “Triple reuptake inhibition (Ratio %) DAT” value turned out to be 13.85%.
Consider `Fc1ccc(-c2nnc(CN3CCC(Cc4ccccc4)CC3)[nH]2)cc1` [Example 47, 4-benzyl-1-((5-(4-fluorophenyl)-4H-1,2,4-triazol-3-yl)methyl)piperidine], for which, in assay [1], the IC50 was determined as 1170 nM and the “Triple reuptake inhibition (Ratio %) NET” value was found to be 68.26%. Also, in assay [2], the IC50 stood at 10700 nM and the “Triple reuptake inhibition (Ratio %) SERT” value turned out to be 51.93%. In addition, in assay [3], the 50% inhibitory concentration (IC50) stood at 372 nM and the “Triple reuptake inhibition (Ratio %) DAT” value was 20.47%.
Regarding `COc1ccc(-c2nnc(CN3CCC(Cc4ccccc4)CC3)[nH]2)cc1OC` [Example 48, 4-benzyl-1-((5-(3,4-dimethoxyphenyl)-4H-1,2,4-triazol-3-yl)methyl)piperidine], in assay [1], the half-maximal inhibitory concentration (IC50) amounted to 348 nM and the “Triple reuptake inhibition (Ratio %) NET” value is 23.52%. Also, in assay [2], the half-maximal inhibitory concentration (IC50) stood at 2560 nM and the “Triple reuptake inhibition (Ratio %) SERT” value turned out to be 53.41%. In assay [3], the IC50 stood at 134 nM and the “Triple reuptake inhibition (Ratio %) DAT” value was determined as 20.20%.
`FC(F)(F)Oc1ccc(-c2nnc(CN3CCC(Cc4ccccc4)CC3)[nH]2)cc1` [Example 49, 4-benzyl-1-((5-(4-(trifluoromethoxy)phenyl)-4H-1,2,4-triazol-3-yl)methyl)piperidine]: in assay [1], the IC50 came out at 475 nM and the “Triple reuptake inhibition (Ratio %) NET” value was determined as 44.81%. In assay [2], the IC50 was determined as 1770 nM and the “Triple reuptake inhibition (Ratio %) SERT” value was found to be 63.99%. Moreover, in assay [3], the IC50 worked out at 223 nM and the “Triple reuptake inhibition (Ratio %) DAT” value worked out at 11.41%.
Turning to `FC(F)(F)c1ccc(-c2nnc(CN3CCC(Cc4ccccc4)CC3)[nH]2)cc1` [Example 50, 4-benzyl-1-((5-(4-(trifluoromethyl)phenyl)-4H-1,2,4-triazol-3-yl)methyl)piperidine], in assay [1], the IC50 is 176 nM and the “Triple reuptake inhibition (Ratio %) NET” value turned out to be 27.46%. Besides, in assay [2], the midpoint of inhibition, the IC50, lay at 5700 nM and the “Triple reuptake inhibition (Ratio %) SERT” value was determined as 66.02%. In assay [3], 236 nM corresponded to half-maximal inhibition (IC50) and the “Triple reuptake inhibition (Ratio %) DAT” value is recorded as 20.84%.
For `CC(=O)Nc1ccc(-c2nnc(CN3CCC(Cc4ccccc4)CC3)[nH]2)cc1` [Example 51, N-(4-(5-((4-benzylpiperidin-1-yl)methyl)-4H-1,2,4-triazol-3-yl)phenyl)acetamide], the “Triple reuptake inhibition (Ratio %) NET” value in assay [1] was found to be 56.36%. Further, the “Triple reuptake inhibition (Ratio %) SERT” value in assay [2] came out at 38.36%. For the same compound, the “Triple reuptake inhibition (Ratio %) DAT” value in assay [3] is reported as 75.88%.
The matching figures for `Oc1ccc2cc(-c3nnc(CN4CCC(Cc5ccccc5)CC4)[nH]3)ccc2c1` [Example 52, 6-(5-((4-benzylpiperidin-1-yl)methyl)-4H-1,2,4-triazol-3-yl)naphthalen-2-ol]: 50.92%, 52.31% and 48.72%.
With `c1ccc(CC2CCN(Cc3nnc(-c4ccc(Oc5ccccc5)cc4)[nH]3)CC2)cc1` [Example 53, 4-benzyl-1-((5-(4-phenoxyphenyl)-4H-1,2,4-triazol-3-yl)methyl)piperidine], the “Triple reuptake inhibition (Ratio %) NET” value in assay [1] is given as 28.99%. Also, the “Triple reuptake inhibition (Ratio %) SERT” value in assay [2] came to 77.61%. Also, the “Triple reuptake inhibition (Ratio %) DAT” value in assay [3] was 52.90%.
For the compound `FC(F)(F)Oc1cccc(-c2nnc(CN3CCC(Cc4ccccc4)CC3)[nH]2)c1` [Example 54, 4-benzyl-1-((5-(3-(trifluoromethoxy)phenyl)-4H-1,2,4-triazol-3-yl)methyl)piperidine], the “Triple reuptake inhibition (Ratio %) NET” value in assay [1] is on record as 52.40%. In assay [2], the “Triple reuptake inhibition (Ratio %) SERT” value is recorded as 88.15%. Further, the “Triple reuptake inhibition (Ratio %) DAT” value in assay [3] was 38.97%.
The matching figures for `FC(F)(F)c1cccc(-c2nnc(CN3CCC(Cc4ccccc4)CC3)[nH]2)c1` [Example 55, 4-benzyl-1-((5-(3-(trifluoromethyl)phenyl)-4H-1,2,4-triazol-3-yl)methyl)piperidine]: 66.71%, 86.78% and 40.14%.
For the compound `COc1ccc2c(-c3nnc(CN4CCC(Cc5ccccc5)CC4)[nH]3)c[nH]c2c1` [Example 56, 3-(5-((4-benzylpiperidin-1-yl)methyl)-4H-1,2,4-triazol-3-yl)-6-methoxy-1H-indole], in assay [1], the midpoint of inhibition, the IC50, lay at 640 nM and the “Triple reuptake inhibition (Ratio %) NET” value is recorded as 39.66%. Also, in assay [2], the IC50 worked out at 300 nM and the “Triple reuptake inhibition (Ratio %) SERT” value was 15.26%. Also, in assay [3], inhibition was half-maximal at 1200 nM (IC50) and the “Triple reuptake inhibition (Ratio %) DAT” value is recorded as 45.52%.
Turning to `NC(=O)c1ccc2[nH]c(-c3nnc(CN4CCC(Cc5ccccc5)CC4)[nH]3)cc2c1` [Example 57, 2-(5-((4-benzylpiperidin-1-yl)methyl)-4H-1,2,4-triazol-3-yl)-1H-indol-5-carboxamide], in assay [1], the half-inhibitory concentration (IC50) came to 463 nM and the “Triple reuptake inhibition (Ratio %) NET” value was determined as 37.21%. In addition, in assay [2], the IC50 turned out to be 580 nM and the “Triple reuptake inhibition (Ratio %) SERT” value was determined as 56.55%. For the same compound, in assay [3], the IC50 is 208 nM and the “Triple reuptake inhibition (Ratio %) DAT” value came to 20.95%.
Take `CN(C)CCNC(=O)c1ccc(-c2nnc(CN3CCC(Cc4ccccc4)CC3)[nH]2)cc1` [Example 58, 4-(5-((4-benzylpiperidin-1-yl)methyl)-4H-1,2,4-triazol-3-yl)-N-(2-(dimethylamino)ethyl)benzoamide]: in assay [1], the “Triple reuptake inhibition (Ratio %) NET” value is 76.51%. Also, in assay [2], the “Triple reuptake inhibition (Ratio %) SERT” value came out at 50.24%. Also, the “Triple reuptake inhibition (Ratio %) DAT” value in assay [3] amounted to 77.67%.
